Patent US20180228158A1, “COMPOSITIONS AND METHODS FOR CONTROL OF DISEASE” (Monsanto Technology LLC, priority 2017, published 2018)

Tests used:
[1] = test system: soybean sudden death syndrome (fungi of the genus Fusarium); test: Field trial against soybean sudden death syndrome (seed treatment); type: in vivo, Fusarium virguliforme; design: key to SDS incidence: % of affected plants; SDS severity: scale not given here; settings: for SDS severity: average severity of symptoms in the plots at harvest time; for SDS incidence: percentage of affected plants at harvest time in the fall
Procedure: (§1) A field trial was conducted to determine the efficacy of compounds as described herein against soybean sudden death syndrome. Soybean seeds were planted at the start of the spring growing season in a location where fungi of the genus Fusarium were endemic. Nothing special was done to encourage growth of the fungus or development of the SDS disease.
(§2) Compounds listed in Table 1 below were used to treat soybean seeds prior to planting.
(§3) Seeds treated with oxamyl, at a rate of 1 mg per seed, and non-treated seeds (NT) were included as controls.
(§4) Other typical agronomic data, including counts of soybean cyst nematode (SCN) eggs, were also collected throughout the trial. The percentage of affected plants and the observed SDS disease severity are graphically depicted in FIGS. 1 and 2, respectively.

[2] = test system: soybean cyst nematode (SCN); test: Field trial: counts of soybean cyst nematode (SCN) eggs; type: in vivo; settings: for Fall Eggs/100 cc: SCN egg count in fall; for Spring Eggs/100 cc: SCN egg count in spring; for Mean RF: SCN eggs
Procedure: as §1, §2, §3, §4

[3] = soybean seed treatment 0.5 mg/seed
[4] = soybean seed treatment 1 mg/seed

Structure (SMILES) | SDS severity [1, 3] | SDS incidence [1, 3] | SDS severity [1, 4] | SDS incidence [1, 4] | Fall Eggs/100 cc [2, 3] [eggs/100 cc] | Spring Eggs/100 cc [2, 3] [eggs/100 cc] | Mean RF [2, 3] | Fall Eggs/100 cc [2, 4] [eggs/100 cc] | Spring Eggs/100 cc [2, 4] [eggs/100 cc] | Mean RF [2, 4]
c1ccc(-c2noc(-c3cccs3)n2)cc1 [DC1822] | 2 | 45 | 1.5 | 28.75 | 2600 | 1175 | 3.875 | 2100 | 700 | 6.425
Clc1ccc(-c2noc(-c3ccco3)n2)cc1 [DC5523] | 2 | 47.5 | 2 | 26.25 | 1925 | 675 | 5.35 | 1725 | 800 | 4.325
Cc1cc(Cl)ccc1-c1noc(-c2ccco2)n1 [DC5823] | 2.25 | 55 | 2.5 | 46.25 | 3325 | 1075 | 3.35 | 1100 | 1450 | 1.625
CNC(=O)O/N=C(\SC)C(=O)N(C)C [Oxamyl, oxamyl, reference compound] |  |  | 1.5 | 32.5 |  |  |  | 3075 | 1050 | 6.65
